Assay results as given in patent publication US20230204587A1, “NOVEL DIAGNOSTIC MARKER FOR PROSTATE CANCER” (URTESTE S.A., priority 2020, published 2023).
Starred links: 1 amine or outer side, 2 acyl side, 3 side chain; linkers in the order of their positions; H or OH if unused. Non-standard residues stand in square brackets, D forms with d. No end group written: not given here. *: point of attachment. Benzoyl(5-NH,2-NO2) = O=C(c1cc(N[*:1])ccc1[N+](=O)[O-])[*:2]; pNA = O=[N+]([O-])c1ccc(N*)cc1; 2Abz = Nc1ccccc1C(=O)O

What was measured:
[1] = system: proteolytic enzymes in urine; assay: Chromogenic substrate hydrolysis in urine samples (absorbance at 405 nm, 96-well plate); assay type: biochemical, human; details: for rate of hydrolysis of substrate (increase in absorbance over time): 200 mM Tris-HCl pH 8.0, 37° C., 60 minutes, 405 nm
Procedure: The study on the application of new compounds was performed on a group of 25 patients diagnosed with prostate cancer. For this purpose, the compound with formula: ABZ-Trp-Glu-Gly-Asn-ANB-NH2 or ABZ-Trp-Glu-Gly-Asn-pNA was dissolved in dimethyl sulfoxide (at a concentration of 0.5 mg/mL); 50 μL of this solution was mixed with 120 μl buffer (200 mM Tris-HCl, pH 8.0) and 80 μL of urine of a person with prostate cancer. The measurement was made in a 96-well plate designed for measuring absorbance, and each sample was analysed in triplicate at 37° C. The duration of the measurement was 60 minutes. During the measurement, the wavelength characteristic of the released chromophore (ANB-NH2 or pNA) was monitored at 405 nm (range 380-430 nm).

[2] = system: proteolytic enzymes in urine; assay: RP HPLC analysis of substrate hydrolysis in urine from a person diagnosed with prostate cancer; assay type: biochemical, human; details: randomly selected urine from a person diagnosed with prostate cancer
Procedure: A: ABZ-Trp-Glu-Gly-Asn-ANB-NH2 substrate in 200 mM Tris-HCl buffer, pH 8.0. B: Hydrolysis of ABZ-Trp-Glu-Gly-Asn-pNA substrate in urine of patients diagnosed with prostate cancer.

Substance | rate of hydrolysis of substrate (increase in absorbance over time) ([1]; urine from healthy individuals) | absorbance increase on incubation with urine from various kinds of malignancies ([1]; urine from pancreas, liver, bowel, lung, bile duct, stomach and prostate cancer patients) | rate of hydrolysis of substrate (increase in absorbance over time) ([1]; urine of patients diagnosed with prostate cancer (samples 1-25)) | hydrolysis products by RP HPLC [2]
ABZ-Trp-Glu-Gly-Asn-ANB-NH2 ([2Abz]WEGN-{Benzoyl(5-NH,2-NO2)-NH2}) [Compound 1, chromogenic peptide; ABZ is 2-aminobenzoic acid, ANB-NH2 is amide of 5-amino-2-nitrobenzoic acid] | does not lead to an increase in absorbance | absorbance increase is observed only for urine of patient diagnosed with prostate cancer | all samples 1-25 disintegrated | break down into the ABZ-Trp-Glu-Gly-Asn-OH peptide fragment and chromophore
ABZ-Trp-Glu-Gly-Asn-pNA ([2Abz]WEGN-pNA) [Compound 2, chromogenic peptide; ABZ is 2-aminobenzoic acid, pNA is para-nitroaniline] |  |  |  | break down into the ABZ-Trp-Glu-Gly-Asn-OH peptide fragment and chromophore
